Assay [1] concerns the target Serine/threonine-protein kinase PLK3 (Homo sapiens, UniProt Q9H4B4). As to the kind of experiment: Selectivity interaction (Kinase panel (Z-LYTE Assay)) EUB0001632a PLK3. The settings on record: at 10 µM.
Assay [2] concerns the target Mitogen-activated protein kinase kinase kinase kinase 4 (Homo sapiens, UniProt O95819). As to the kind of experiment: Selectivity interaction (Ambit KINOMEscan and KiNATiv profiling in Jurkat cells) EUB0000090b MAP4K4. In kind it is cell-based. The settings on record: at 1 µM.
Assay [3] concerns the target Casein kinase I isoform gamma-3 (Homo sapiens) (UniProt Q9Y6M4). As to the kind of experiment: Selectivity interaction (KinomeScan (DiscoverX)) EUB0000229b CSNK1G3. The settings on record: at 10 µM.
The target of assay [4] is 5-hydroxytryptamine receptor 7 (Homo sapiens) (UniProt P34969). As to the kind of experiment: Selectivity interaction (GPCR panel (PDSP screen)) EUB0001079a HTR7. The settings on record: at 10 µM.
Assay [5] deals with Ribosomal protein S6 kinase alpha-1 (Homo sapiens, UniProt Q15418). As to the kind of experiment: Selectivity interaction (KinomeScan (DiscoverX)) EUB0001079a RPS6KA1. The settings on record: at 1 µM.
The target of assay [6] is Ephrin type-A receptor 7 (Homo sapiens) (UniProt Q15375). Kind of assay: Selectivity interaction (KinomeScan (DiscoverX)) EUB0001619a EPHA7. Conditions: at 1 µM.
Sequence of Ephrin type-A receptor 7 (Homo sapiens) (Q15375 28-998 limits assumed): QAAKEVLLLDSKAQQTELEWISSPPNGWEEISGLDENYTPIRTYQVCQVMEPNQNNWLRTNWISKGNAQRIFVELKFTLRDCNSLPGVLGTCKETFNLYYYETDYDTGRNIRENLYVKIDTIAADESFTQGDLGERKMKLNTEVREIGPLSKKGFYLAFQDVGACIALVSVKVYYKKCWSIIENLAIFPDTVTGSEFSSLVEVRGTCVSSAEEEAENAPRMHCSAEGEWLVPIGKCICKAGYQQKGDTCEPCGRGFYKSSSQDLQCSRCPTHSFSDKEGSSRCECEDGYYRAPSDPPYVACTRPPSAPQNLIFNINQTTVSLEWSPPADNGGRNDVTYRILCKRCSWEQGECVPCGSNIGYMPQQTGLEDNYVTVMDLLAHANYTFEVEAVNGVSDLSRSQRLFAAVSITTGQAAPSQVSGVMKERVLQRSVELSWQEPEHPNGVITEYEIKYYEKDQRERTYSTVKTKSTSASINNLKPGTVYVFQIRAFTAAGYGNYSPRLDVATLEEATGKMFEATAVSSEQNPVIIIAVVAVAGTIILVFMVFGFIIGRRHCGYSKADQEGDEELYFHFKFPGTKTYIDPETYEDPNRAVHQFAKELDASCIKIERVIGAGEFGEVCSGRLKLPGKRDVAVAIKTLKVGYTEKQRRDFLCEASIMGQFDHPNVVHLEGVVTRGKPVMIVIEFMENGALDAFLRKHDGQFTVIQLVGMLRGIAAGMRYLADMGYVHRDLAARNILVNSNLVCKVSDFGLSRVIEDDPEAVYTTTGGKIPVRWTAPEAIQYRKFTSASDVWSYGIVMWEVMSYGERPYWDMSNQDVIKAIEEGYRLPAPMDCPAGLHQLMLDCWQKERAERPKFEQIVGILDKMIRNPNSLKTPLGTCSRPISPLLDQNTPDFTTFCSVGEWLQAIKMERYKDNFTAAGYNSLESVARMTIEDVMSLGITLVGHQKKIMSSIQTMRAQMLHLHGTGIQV
Assay [7] addresses T1, Serine/threonine-protein kinase TBK1 (Homo sapiens) (UniProt Q9UHD2).
T1 sequence (whole entry): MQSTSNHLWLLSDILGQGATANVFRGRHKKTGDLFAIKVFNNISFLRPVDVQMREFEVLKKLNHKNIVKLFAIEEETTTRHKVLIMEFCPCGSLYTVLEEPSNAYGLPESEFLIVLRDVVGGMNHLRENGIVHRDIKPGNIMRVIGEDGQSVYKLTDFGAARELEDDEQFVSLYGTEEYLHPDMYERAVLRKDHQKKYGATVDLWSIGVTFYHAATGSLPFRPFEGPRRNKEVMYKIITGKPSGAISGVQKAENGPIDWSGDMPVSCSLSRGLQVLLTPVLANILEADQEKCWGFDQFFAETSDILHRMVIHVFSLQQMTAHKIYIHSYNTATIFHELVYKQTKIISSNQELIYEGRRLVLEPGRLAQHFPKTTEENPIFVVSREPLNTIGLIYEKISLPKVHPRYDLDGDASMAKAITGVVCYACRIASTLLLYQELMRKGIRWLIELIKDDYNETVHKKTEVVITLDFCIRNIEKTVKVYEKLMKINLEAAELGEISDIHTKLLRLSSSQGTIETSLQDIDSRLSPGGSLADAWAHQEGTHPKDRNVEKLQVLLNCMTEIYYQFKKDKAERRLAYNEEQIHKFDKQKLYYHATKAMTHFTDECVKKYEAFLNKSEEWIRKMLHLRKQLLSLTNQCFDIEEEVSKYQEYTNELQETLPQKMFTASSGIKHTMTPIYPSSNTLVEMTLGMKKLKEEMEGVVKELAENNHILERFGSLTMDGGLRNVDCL
Kind of assay: Selectivity interaction (ActivX KiNativ screen (kinase selectivity in THP-1 cell lysates)) EUB0000639a TBK1. In kind it is subcellular. Conditions: lysate, at 0.2 µM.

In assay [8] the target is T2, Protein kinase C iota type (Homo sapiens) (UniProt P41743).
T2 sequence (whole entry): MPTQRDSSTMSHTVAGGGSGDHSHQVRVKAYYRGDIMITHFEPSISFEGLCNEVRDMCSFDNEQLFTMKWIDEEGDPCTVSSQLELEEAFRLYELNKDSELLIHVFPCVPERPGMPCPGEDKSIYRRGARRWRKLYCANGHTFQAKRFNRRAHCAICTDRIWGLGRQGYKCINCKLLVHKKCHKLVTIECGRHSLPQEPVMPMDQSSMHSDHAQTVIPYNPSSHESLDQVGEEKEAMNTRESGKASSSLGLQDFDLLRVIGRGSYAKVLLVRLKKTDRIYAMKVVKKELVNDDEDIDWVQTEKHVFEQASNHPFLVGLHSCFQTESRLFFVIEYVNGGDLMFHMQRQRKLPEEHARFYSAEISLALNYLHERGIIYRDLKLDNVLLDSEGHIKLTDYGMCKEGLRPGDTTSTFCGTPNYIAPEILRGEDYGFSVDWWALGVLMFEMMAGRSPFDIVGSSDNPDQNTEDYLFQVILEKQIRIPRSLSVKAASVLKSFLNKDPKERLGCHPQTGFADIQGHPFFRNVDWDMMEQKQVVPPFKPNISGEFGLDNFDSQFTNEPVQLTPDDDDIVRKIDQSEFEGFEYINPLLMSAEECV
Kind of assay: Selectivity interaction (ActivX KiNativ screen (kinase selectivity in THP-1 cell lysates)) EUB0000639a PRKCI. Conditions: lysate. In kind it is subcellular.

Assay [9] has as its target Mitogen-activated protein kinase kinase kinase 11 (Homo sapiens) (UniProt Q16584). As to the kind of experiment: Selectivity interaction (ActivX KiNativ screen (kinase selectivity in THP-1 cell lysates)) EUB0000639a MAP3K11. In kind it is subcellular. The settings on record: lysate, at 1 µM.
The target in assay [10] is Mitogen-activated protein kinase 8 (Homo sapiens, UniProt P45983). As to the kind of experiment: Selectivity interaction (Kinase screening (Upstate/Millipore)) EUB0000604a MAPK8.
Assay [11] has as its target Leukocyte tyrosine kinase receptor (Homo sapiens, UniProt P29376). Kind of assay: Selectivity interaction (KinomeScan (DiscoverX)) EUB0001049a LTK. Conditions: at 1 µM.
For assay [12], the target named is Activin receptor type-2A (Homo sapiens) (UniProt P27037). Kind of assay: Selectivity interaction (KinomeScan (DiscoverX)) EUB0001049a ACVR2A. Conditions: at 1 µM.
Sequence of Activin receptor type-2A (Homo sapiens) (P27037 whole entry): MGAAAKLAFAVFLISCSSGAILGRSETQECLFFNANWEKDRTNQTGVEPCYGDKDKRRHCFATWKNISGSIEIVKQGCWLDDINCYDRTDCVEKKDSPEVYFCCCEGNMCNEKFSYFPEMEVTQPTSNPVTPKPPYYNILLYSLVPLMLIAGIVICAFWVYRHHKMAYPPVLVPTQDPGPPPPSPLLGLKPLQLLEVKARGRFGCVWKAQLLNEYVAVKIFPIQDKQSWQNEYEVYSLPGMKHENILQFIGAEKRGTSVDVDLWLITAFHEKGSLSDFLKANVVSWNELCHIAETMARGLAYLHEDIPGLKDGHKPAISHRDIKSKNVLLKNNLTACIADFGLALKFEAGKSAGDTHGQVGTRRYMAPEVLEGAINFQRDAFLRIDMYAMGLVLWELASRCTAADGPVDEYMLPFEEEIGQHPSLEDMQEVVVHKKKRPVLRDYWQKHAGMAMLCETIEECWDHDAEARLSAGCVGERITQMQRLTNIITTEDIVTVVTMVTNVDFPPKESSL
In assay [13] the target is T3, Dual specificity mitogen-activated protein kinase kinase 7 (Homo sapiens) (UniProt O14733).
T3 sequence (whole entry): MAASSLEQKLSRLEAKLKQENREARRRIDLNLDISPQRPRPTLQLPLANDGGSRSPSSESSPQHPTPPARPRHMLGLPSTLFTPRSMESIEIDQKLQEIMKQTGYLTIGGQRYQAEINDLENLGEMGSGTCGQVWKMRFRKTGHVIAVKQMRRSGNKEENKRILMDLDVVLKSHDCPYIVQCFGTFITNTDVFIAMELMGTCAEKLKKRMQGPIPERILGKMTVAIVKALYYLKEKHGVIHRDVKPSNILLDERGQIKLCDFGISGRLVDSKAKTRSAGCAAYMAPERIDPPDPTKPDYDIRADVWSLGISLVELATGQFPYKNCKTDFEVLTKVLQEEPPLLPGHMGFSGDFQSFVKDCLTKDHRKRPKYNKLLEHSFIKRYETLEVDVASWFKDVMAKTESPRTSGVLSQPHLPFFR
As to the kind of experiment: Selectivity interaction (KinomeScan (DiscoverX)) EUB0000092b MAP2K7. The settings on record: at 10 µM.

The target in assay [14] is Serine/threonine-protein kinase MRCK beta (Homo sapiens) (UniProt Q9Y5S2). Kind of assay: Selectivity interaction (KinomeScan (DiscoverX)) EUB0000618a CDC42BPB. Conditions: at 10 µM.
Sequence of Serine/threonine-protein kinase MRCK beta (Homo sapiens) (Q9Y5S2 whole entry): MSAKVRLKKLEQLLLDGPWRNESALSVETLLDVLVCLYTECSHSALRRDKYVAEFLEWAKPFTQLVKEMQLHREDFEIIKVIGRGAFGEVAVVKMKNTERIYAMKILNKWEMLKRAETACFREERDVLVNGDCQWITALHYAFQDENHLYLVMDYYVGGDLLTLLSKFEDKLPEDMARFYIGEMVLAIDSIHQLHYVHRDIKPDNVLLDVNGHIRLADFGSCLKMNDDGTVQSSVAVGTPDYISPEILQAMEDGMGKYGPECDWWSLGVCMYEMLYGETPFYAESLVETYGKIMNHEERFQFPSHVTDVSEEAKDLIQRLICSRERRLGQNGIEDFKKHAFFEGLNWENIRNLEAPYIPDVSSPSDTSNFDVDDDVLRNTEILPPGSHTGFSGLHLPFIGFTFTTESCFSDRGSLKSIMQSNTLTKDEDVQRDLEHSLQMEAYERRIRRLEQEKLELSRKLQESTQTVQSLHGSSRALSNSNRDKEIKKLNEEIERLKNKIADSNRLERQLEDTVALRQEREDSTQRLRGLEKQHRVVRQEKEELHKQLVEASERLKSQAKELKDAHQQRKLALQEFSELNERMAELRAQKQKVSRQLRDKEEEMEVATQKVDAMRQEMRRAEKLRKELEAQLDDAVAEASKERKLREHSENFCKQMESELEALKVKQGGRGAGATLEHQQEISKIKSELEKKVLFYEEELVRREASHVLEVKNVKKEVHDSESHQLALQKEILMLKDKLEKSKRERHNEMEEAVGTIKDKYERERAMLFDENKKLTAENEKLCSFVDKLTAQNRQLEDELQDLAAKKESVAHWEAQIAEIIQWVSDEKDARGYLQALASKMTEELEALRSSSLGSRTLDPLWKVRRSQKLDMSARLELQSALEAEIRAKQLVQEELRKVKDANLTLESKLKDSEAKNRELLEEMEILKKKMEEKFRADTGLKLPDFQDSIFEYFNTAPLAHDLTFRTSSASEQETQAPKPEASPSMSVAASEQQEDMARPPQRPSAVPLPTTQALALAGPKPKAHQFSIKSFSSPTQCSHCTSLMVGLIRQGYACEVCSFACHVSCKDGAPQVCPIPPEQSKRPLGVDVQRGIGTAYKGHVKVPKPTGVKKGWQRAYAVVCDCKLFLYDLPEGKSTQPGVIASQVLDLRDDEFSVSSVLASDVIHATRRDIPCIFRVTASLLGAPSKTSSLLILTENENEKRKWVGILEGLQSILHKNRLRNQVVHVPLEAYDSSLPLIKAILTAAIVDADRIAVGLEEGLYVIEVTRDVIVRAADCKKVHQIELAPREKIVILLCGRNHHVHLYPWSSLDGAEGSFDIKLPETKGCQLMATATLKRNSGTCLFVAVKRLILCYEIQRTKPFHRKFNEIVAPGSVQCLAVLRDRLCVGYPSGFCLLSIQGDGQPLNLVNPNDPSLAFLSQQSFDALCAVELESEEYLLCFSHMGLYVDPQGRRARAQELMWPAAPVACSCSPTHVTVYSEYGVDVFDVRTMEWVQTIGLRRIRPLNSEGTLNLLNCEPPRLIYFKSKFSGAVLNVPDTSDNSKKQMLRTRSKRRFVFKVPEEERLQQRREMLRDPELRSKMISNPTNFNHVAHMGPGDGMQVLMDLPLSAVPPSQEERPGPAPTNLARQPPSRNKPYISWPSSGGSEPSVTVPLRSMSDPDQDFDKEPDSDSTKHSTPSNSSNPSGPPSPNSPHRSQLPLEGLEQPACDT
The target in the next assay is Insulin receptor (Homo sapiens, UniProt P06213). As to the kind of experiment: Selectivity interaction (KinomeScan (DiscoverX)) EUB0000618a INSR. Conditions: at 10 µM.
Assay [15] has as its target Tyrosine-protein kinase Srms (Homo sapiens) (UniProt Q9H3Y6). As to the kind of experiment: Selectivity interaction (KinomeScan (DiscoverX)) EUB0000595a SRMS. Conditions: at 10 µM.

Molecules are shown by their SMILES.

Sequence of Mitogen-activated protein kinase kinase kinase kinase 4 (O95819 2-1239 limits assumed): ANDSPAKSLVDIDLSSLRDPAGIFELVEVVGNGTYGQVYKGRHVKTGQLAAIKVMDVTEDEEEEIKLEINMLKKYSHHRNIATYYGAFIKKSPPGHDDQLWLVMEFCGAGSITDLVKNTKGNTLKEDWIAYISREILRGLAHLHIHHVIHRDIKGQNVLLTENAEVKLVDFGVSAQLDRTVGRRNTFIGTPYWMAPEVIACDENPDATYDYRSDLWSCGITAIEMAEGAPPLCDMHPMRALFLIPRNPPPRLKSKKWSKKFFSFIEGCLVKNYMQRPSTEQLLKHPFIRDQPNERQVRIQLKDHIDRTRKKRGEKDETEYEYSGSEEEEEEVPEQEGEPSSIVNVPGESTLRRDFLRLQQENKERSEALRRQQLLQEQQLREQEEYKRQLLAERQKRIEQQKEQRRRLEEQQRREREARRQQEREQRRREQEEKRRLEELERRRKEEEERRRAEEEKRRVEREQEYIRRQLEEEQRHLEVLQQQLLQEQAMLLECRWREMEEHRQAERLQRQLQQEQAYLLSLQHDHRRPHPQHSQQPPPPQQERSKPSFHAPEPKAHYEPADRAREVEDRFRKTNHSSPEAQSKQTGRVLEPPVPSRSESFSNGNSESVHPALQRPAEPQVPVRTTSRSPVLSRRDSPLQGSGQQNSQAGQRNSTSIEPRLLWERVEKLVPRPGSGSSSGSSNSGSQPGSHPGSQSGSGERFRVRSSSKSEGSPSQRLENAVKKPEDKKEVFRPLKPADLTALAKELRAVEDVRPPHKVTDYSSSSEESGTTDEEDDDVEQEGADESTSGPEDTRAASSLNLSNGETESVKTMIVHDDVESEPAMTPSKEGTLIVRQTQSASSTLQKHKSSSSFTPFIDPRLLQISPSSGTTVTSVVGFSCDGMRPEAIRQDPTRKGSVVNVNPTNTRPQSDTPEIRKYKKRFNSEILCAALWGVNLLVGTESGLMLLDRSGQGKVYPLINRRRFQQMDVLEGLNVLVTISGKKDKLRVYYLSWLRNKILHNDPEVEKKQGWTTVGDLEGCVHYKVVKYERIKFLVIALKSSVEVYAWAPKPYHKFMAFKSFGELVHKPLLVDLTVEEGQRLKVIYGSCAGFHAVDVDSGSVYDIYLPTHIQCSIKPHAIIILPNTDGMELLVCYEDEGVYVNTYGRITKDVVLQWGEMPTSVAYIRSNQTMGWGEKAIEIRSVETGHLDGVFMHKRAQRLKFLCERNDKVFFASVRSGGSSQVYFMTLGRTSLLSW
Sequence of Serine/threonine-protein kinase PLK3 (Q9H4B4 whole entry, looked up): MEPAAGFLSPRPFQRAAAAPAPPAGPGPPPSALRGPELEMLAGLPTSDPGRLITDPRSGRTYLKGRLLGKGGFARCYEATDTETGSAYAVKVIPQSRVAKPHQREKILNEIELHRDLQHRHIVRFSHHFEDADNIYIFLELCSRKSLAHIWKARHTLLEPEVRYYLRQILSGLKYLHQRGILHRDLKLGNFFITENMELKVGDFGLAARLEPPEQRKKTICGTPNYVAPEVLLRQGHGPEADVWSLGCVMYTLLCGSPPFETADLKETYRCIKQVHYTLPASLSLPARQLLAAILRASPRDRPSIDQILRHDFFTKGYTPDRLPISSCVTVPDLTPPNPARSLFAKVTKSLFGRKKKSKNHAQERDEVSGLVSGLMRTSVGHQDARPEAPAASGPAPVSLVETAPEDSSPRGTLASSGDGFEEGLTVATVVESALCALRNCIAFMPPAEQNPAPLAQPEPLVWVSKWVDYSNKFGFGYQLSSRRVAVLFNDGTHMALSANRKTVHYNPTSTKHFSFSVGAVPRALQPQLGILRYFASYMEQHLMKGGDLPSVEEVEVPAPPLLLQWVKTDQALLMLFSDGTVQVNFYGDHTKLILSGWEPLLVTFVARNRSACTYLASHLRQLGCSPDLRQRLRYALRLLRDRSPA

`Cn1cc(-n2cnc3c(NCc4nc5cc(Cl)c(Cl)cc5[nH]4)nc(N4CCOCC4)nc32)cn1`: the % of control in assay [1] amounted to 0.242%.

For `CN(C)C/C=C/C(=O)Nc1ccc(C(=O)N2CCCC(Nc3ncc(Cl)c(-c4c[nH]c5ccccc45)n3)C2)cc1` (stereo not given), the % of control in assay [2] came out at 78%.

In assay [3], `COc1cc(N(C)c2ccnc3ccc(C(F)(F)F)cc23)cc(OC)c1OC` gave a % binding of 86%.

Consider `Nc1cnc(N2CCc3cc(S(=O)(=O)Nc4c(F)cc(Cl)cc4F)cc(N4CCCC4=O)c32)nc1` [TP-020n], for which, in [4], the % of inhibition was 0.94%. Further, in assay [5], the % of control is 93%.

In turn, `N#Cc1cccc(-c2c[nH]c3ncnc(N4CCOCC4)c23)c1` showed a % of control in assay [6] of 100%.

Turning to `CC[C@@H]1[C@H](F)C(=O)N[C@@H]1COc1nccc2cc(C(N)=O)c(OC)cc12` [ZIMLOVISERTIB], the % of inhibition was -31.6% in [7]; 8.5% in assay [8] (at 0.01 µM); -2.3% in [8] (at 0.04 µM); -7.6% in assay [8] (at 0.2 µM); 6.9% in assay [8] (at 1 µM); -26.2% in [8] (at 5 µM). Further, the % of inhibition in [9] was -22.3%.

On to `Cc1cnc(Nc2ccc(F)cc2Cl)nc1-c1c[nH]c(C(=O)N[C@H](CO)c2cccc(Cl)c2)c1`, for which, in [10], the % of inhibition worked out at 34%.

Take `COc1cc(Nc2nc(C)cc(-c3cnn4nc(OC)ccc34)n2)cc(C(F)(F)F)c1`: the % of control in assay [11] was determined as 91%; in assay [12], 98%.

As to `CCC(=O)N1CCN(c2ccc(-n3c(=O)ccc4cnc5ccc(-c6cnc7ccccc7c6)cc5c43)cc2C(F)(F)F)CC1`, in assay [13], the % of control was 100%.

`O[C@H]1CC[C@H](Nc2ncc3nc(Nc4c(F)cc(F)cc4F)n([C@H]4CCOC4)c3n2)CC1`: the % of control in assay [14] stood at 100%; at Insulin receptor, 98%.

In [15], `COCC(=O)NC/C=C/c1ccc2ncnc(Nc3ccc(Oc4ccc(C)nc4)c(C)c3)c2c1` [CP-724714] showed a % of control of 71%.

The record behind these values is ChEMBL document CHEMBL5465560, “Selectivity Literature for EUbOPEN Chemogenomic Library” (2024).
